From ChEMBL document CHEMBL1201862, “PubChem BioAssay data set” (2004)
Several values for one entry are separate records, joined by “and”; a condition that tells them apart may be missing. Equal entries are not always repeated.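 In this assay, cells in 96-well plates receive the compound at five concentrations for 48 hours. Endpoints are linearly interpolated between the surrounding concentrations. GI50 = concentration required for 50% inhibition of growth.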 Activity calls are given as the source filed them. Rule as the data show it: active = GI50 up to about 1.1 µM and inactive = higher.

Columns and labels:
Experiment in all cases: NCI-60 cell line screen, 48 h
UACC-62 = system: UACC-62
UO-31 = system: UO-31
HOP-92 = system: HOP-92
HCT-116 = system: HCT-116
K562 = system: K562
T47D = system: T47D
SNB-78 = system: SNB-78
SNB-75 = system: SNB-75
786-0 = system: 786-0
OVCAR-4 = system: OVCAR-4
OVCAR-3 = system: OVCAR-3
COLO 205 = system: COLO 205
KM12 = system: KM12
SF-268 = system: SF-268
HOP-62 = system: HOP-62
ACHN = system: ACHN
MDA-MB-231 = system: MDA-MB-231
SNB-19 = system: SNB-19
NCI-H522 = system: NCI-H522
IGROV-1 = system: IGROV-1

Compound	GI50 (UACC-62)	GI50 (UO-31)	GI50 (HOP-92)	GI50 (HCT-116)	GI50 (K562)	GI50 (T47D)	GI50 (SNB-78)	GI50 (SNB-75)	GI50 (786-0)	GI50 (OVCAR-4)	GI50 (OVCAR-3)	GI50 (COLO 205)	GI50 (KM12)	GI50 (SF-268)	GI50 (HOP-62)	GI50 (ACHN)	GI50 (MDA-MB-231)	GI50 (SNB-19)	GI50 (NCI-H522)	GI50 (IGROV-1)
C[C@H]1CCC/C=C/[C@@H]2C[C@H](O)C[C@H]2[C@H](O)/C=C/C(=O)O1 [BREFELDIN A]	< 14.2 nM (active) and 18.2 nM (active)	23.2 nM (active) and < 18.3 nM (active)	80 nM (active) and 41.7 nM (active)	18.2 nM (active) and 23.3 nM (active)	36.6 nM (active) and 71.5 nM (active)	124 nM (active) and 71.5 nM (active)	0.00675 µM (active)	< 10 nM (active) and 8.97 nM (active)	< 10 nM (active) and 13.2 nM (active)	< 14.7 nM (active) and 24.7 nM (active)	< 18.2 nM (active) and 30.5 nM (active)	14.3 nM (active) and 16.4 nM (active)	10.1 nM (active) and 10.2 nM (active)							
CCCCCCCCCCCCCCCCOP(=O)([O-])OCC[N+](C)(C)C [MILTEFOSINE]	20.2 µM (inactive)	20.6 µM (inactive)	2.68 µM (inactive)	18.2 µM (inactive)	39 µM (inactive)	18.2 µM (inactive)	47.6 µM (inactive)	18.7 µM (inactive)	9.55 µM (inactive)	18.2 µM (inactive)	23.9 µM (inactive)	5.58 µM (inactive)	2.74 µM (inactive)	22.1 µM (inactive)	14.9 µM (inactive)	16 µM (inactive)	21.8 µM (inactive)	17.7 µM (inactive)	16.4 µM (inactive)	2.77 µM (inactive)
